Reference: ChEMBL document CHEMBL1141645, “Synthesis and antimycobacterial evaluation of new trans-cinnamic acid hydrazide derivatives” (2008)
Converted amounts (≈) assume the structure as drawn.

Tested on: Mycobacterium tuberculosis
Experiment: Antimicrobial activity against Mycobacterium tuberculosis ATCC […] by Almar blue assay
Format: functional

Row | SMILES | MIC [µg/mL]
1 | O=C(/C=C/c1ccccc1)NNC(=O)c1ccccc1 | 50 (≈ 188 µM)
2 | COc1ccc(/C=C/C(=O)NNC(=O)c2ccccc2)cc1 | 12.5 (≈ 42.2 µM)
3 | COc1ccc(/C=C/C(=O)NNC(=O)c2ccncc2)cc1 | 3.12 (≈ 10.5 µM)
4 | O=C(/C=C/c1ccc2c(c1)OCO2)NNC(=O)c1ccccc1 | 25 (≈ 80.6 µM)
5 | O=C(/C=C/c1ccc(Cl)cc1Cl)NNC(=O)c1ccncc1 | > 100
6 | O=C(/C=C/c1ccc([N+](=O)[O-])cc1)NNC(=O)c1ccncc1 | 3.12 (≈ 9.99 µM)
7 | O=C(/C=C/c1ccc2c(c1)OCO2)NNC(=O)c1ccncc1 | 3.12 (≈ 10 µM)
8 | O=C(/C=C/c1ccc(Cl)cc1Cl)NNC(=O)c1ccccc1 | > 100
9 | O=C(/C=C/c1ccc([N+](=O)[O-])cc1)NNC(=O)c1ccccc1 | > 100
10 | O=C(/C=C/c1ccccc1)NNC(=O)c1ccncc1 | 3.12 (≈ 11.7 µM)
11 | NNC(=O)c1ccncc1 [ISONIAZID] | 0.2 (≈ 1.46 µM)
